Test results reported in ChEMBL document CHEMBL1144165, “Cyclic diarylheptanoids from Myrica nana inhibiting nitric oxide release” (Bioorg Med Chem, 2008).
Activity calls are given as the source filed them. The calls are words filed in the database; no cut-off is given here.

Experiments:
Macrophage [1] = test: Inhibition of LPS-stimulated nitric oxide production in BALB/c mouse macrophages at 10 uM after 20 hrs by Griess assay relative to control; type: functional
Macrophage [2] = test: Inhibition of LPS-stimulated nitric oxide production in BALB/c mouse macrophages at 3 uM after 20 hrs by Griess assay relative to control; type: functional
Macrophage [3] = test: Inhibition of LPS-stimulated nitric oxide production in BALB/c mouse macrophages at 1 uM after 20 hrs by Griess assay relative to control; type: functional
Macrophage [4] = test: Inhibition of LPS-stimulated nitric oxide production in BALB/c mouse macrophages at 100 uM after 20 hrs by Griess assay relative to control; type: functional
Macrophage [5] = test: Inhibition of LPS-stimulated nitric oxide production in BALB/c mouse macrophages at 30 uM after 20 hrs by Griess assay relative to control; type: functional
Macrophage [6] = test: Inhibition of LPS-stimulated nitric oxide production in BALB/c mouse macrophages after 20 hrs by Griess assay relative to control; type: functional, cell-based
Macrophage [7] = test: Inhibition of iNOS expression in LPS-activated BALB/c mouse macrophages at 1 to 100 uM after 12 hrs by SDS-PAGE; type: functional, cell-based

Compound	IC50 (Macrophage [6]) [µM]	inhibition at 10 µM (Macrophage [1]) [%]	inhibition at 3 µM (Macrophage [2]) [%]	inhibition at 1 µM (Macrophage [3]) [%]	inhibition at 100 µM (Macrophage [4]) [%]	inhibition at 30 µM (Macrophage [5]) [%]	Activity (Macrophage [7])
COc1c2cc(c(O)c1OC)CCCCC(=O)/C=C\c1cc(O)c(O)c-2c1 [MYRICANANIN D]		23.8	17.7	6.12	31.8	19.1	
COc1c2cc(c(O)c1OC)CCCCC(=O)C(OC)Cc1cc(O)c(O)c-2c1 (stereo unspecified) [MYRICANANIN E]		15.3	9.22	-3.27	49.2	29.8	
COc1cc2cc(c1O)-c1cc(ccc1O)C[C@H](O)[C@@H](O)CCCC2 [MYRICANANIN A]	45.3	36	-0.13	0.84	84.4	50.8	Active
COC1=C(OC)C(=O)C2=C(CCCCC(O)CCc3ccc(O)c2c3)C1=O (stereo unspecified) [ACTINIDIONE]		22.9	21.1	9.52	38.7	31.4	

More lines, main results first:

IC50 (Macrophage [6]) [µM]	Compound	inhibition at 10 µM (Macrophage [1]) [%]	inhibition at 3 µM (Macrophage [2]) [%]	inhibition at 1 µM (Macrophage [3]) [%]	inhibition at 100 µM (Macrophage [4]) [%]	inhibition at 30 µM (Macrophage [5]) [%]	Activity (Macrophage [7])
30.2	COc1c2cc(c(O)c1OC)CCCCC(=O)C(O)Cc1ccc(O)c-2c1 (stereo unspecified)	41.8	48.7	35.1	65.5	55.7	
52.8	COc1c2cc(c(O)c1OC)CCCC[C@@H]1OC(C)(C)O[C@H]1Cc1ccc(O)c-2c1 [MYRICANANIN B]	39.2	32.8	17.3	55.8	49.7	
46.2	O=C1CCc2ccc(O)c(c2)-c2cc(ccc2O)CCC(O)C1 (stereo unspecified) [ALNUSONOL]	45.8	34.8	-3.39	54.5	41.1	
63.5	COc1cc2cc(c1O)-c1cc(ccc1O)CCC(=O)CCCC2 [MYRICANANIN C]	39.1	32.8	17.3	50.1	42.6	
